{"source": "patent US7084152B2", "about": "“4-phenyl substituted tetrahydroisoquinolines therapeutic use thereof” (AMR Technology, Inc., priority 2000, dated 2006)", "key": {"[1]": {"system": "dopamine transporter protein over the norepinephrine transporter protein", "settings": "ratio of Ki values; cited from earlier work"}}, "note": "Where a name gives a salt, the structure may show the parent alone."}
{"smiles": "Cc1ccc(C2CN(C)Cc3c2ccc2ccoc32)cc1", "note": "(single isomer, unassigned) (as salt: hydrochloride)", "values": [{"measurement": "melting point", "result": "240 to 246", "unit": "°C"}]}
{"smiles": "CN1Cc2c(ccc3ccoc23)C(c2ccc(F)cc2)C1", "note": "(stereo not shown) (as salt: hydrochloride)", "values": [{"measurement": "melting point", "result": "242 to 257", "unit": "°C"}]}
{"smiles": "CN1Cc2c(ccc3ccoc23)C(c2ccccc2)C1", "note": "(single isomer, unassigned)", "values": [{"measurement": "melting point", "result": "81 to 83", "unit": "°C"}]}
{"smiles": "CN1Cc2c(ccc3ccoc23)C(c2ccccc2)C1", "note": "(single isomer, unassigned) (as salt: maleate)", "values": [{"measurement": "melting point", "result": "165 to 168", "unit": "°C"}]}
{"smiles": "COC(=O)C(c1ccccc1)C1CCCCN1", "note": "(stereo not shown) [Methylphenidate, methylphenidate]", "values": [{"measurement": "DAT/NET Ki ratio", "setting": "[1]", "result": 0.1}]}
{"smiles": "CN1Cc2c(ccc3ccoc23)C(c2cc(F)cc(F)c2)C1", "note": "(stereo not shown) (as salt: hydrochloride)", "values": [{"measurement": "melting point", "result": "233 to 236", "unit": "°C"}]}
{"smiles": "Cc1ccc(C2CN(C)Cc3c2ccc2ccoc32)cc1", "note": "(single isomer, unassigned) (as salt: maleate)", "values": [{"measurement": "melting point", "result": "190 to 191", "unit": "°C"}]}
